Molecules are shown by their SMILES. pEC50: −log10 of the molar value.

One experiment has as its target T1, TrkA (Homo sapiens, UniProt P04629).
T1 construct: expressed in transfected cells; host or cells: U2OS
Description: cell-based Enzyme Fragment Complementation (EFC) assay, U2OS cells over-expressing TrkA. Conditions: compound pre-mixed with ligand (NGF), final ligand concentration 10 ng/mL, 3 hours at room temperature, read-out: TrkA potency expressed as EC50. An excerpt:
(§1) A high throughput cell-based screen has been used to identify positive modulators of TrkA and TrkB. The screen involves the use of cell-based assay overexpressing TrkA or TrkB. The purpose of the assay is to identify compounds that modulate neurotrophin signalling (Forsell et al 2012). The assay can be used in inhibitor mode using a high concentration of ligand, in modulator mode using an intermediate concentration and in agonist mode using a low concentration of ligand.
(§2) The assay uses Enzyme Fragment Complementation (EFC) technique, which is a proximity-based assay. Briefly, cells used in this assay over-express two fusion proteins, i.e. the receptor, which can be either of TrkA or TrkB, fused to a small peptide of beta-galactosidase and an adaptor protein, i.e. SHC1 (or any other Trk-adaptor protein) fused to the major part of beta-galactosidase. […] The proximity between the small activating peptide on the receptor and the major part of beta-galactosidase on the adaptor protein leads to an active beta-galactosidase enzyme. The activation of the receptor is quantified by measuring the amount of active beta-galactosidase by its conversion of a non-luminescent substrate into a luminescent product.
(§3) U2OS-cells, over-expressing TrkA or TrkB, are plated in 96- or 384-well plates and incubated overnight. On the following day, test compound was pre-mixed with ligand (NGF) and the ligand-compound mixture is then added to the cells to yield a final ligand concentration of 10 ng/mL. After 3 hours of incubation at room temperature, the incubation is stopped by the addition of a beta-galactosidase substrate mixture containing detergents. The substrate mixture is incubated for 60 minutes at ambient temperature. The luminescence is thereafter read by the use of a plate reader.

The target of the next experiment is T2, TrkB (Homo sapiens, UniProt Q16620).
T2 construct: expressed in transfected cells; host or cells: U2OS
Description: cell-based Enzyme Fragment Complementation (EFC) assay, U2OS cells over-expressing TrkB. To be noted: compound pre-mixed with ligand (NGF), final ligand concentration 10 ng/mL, 3 hours at room temperature, read-out: TrkB potency expressed as EC50.
From the text: as §1, §2, §3

Experiment [1] has as its system ephrin type-B receptor 2 (EphB2). Conditions: Suzuki et al., FEBS Open Bio 2016; cited from earlier work.

T1 sequence (P04629 33-796): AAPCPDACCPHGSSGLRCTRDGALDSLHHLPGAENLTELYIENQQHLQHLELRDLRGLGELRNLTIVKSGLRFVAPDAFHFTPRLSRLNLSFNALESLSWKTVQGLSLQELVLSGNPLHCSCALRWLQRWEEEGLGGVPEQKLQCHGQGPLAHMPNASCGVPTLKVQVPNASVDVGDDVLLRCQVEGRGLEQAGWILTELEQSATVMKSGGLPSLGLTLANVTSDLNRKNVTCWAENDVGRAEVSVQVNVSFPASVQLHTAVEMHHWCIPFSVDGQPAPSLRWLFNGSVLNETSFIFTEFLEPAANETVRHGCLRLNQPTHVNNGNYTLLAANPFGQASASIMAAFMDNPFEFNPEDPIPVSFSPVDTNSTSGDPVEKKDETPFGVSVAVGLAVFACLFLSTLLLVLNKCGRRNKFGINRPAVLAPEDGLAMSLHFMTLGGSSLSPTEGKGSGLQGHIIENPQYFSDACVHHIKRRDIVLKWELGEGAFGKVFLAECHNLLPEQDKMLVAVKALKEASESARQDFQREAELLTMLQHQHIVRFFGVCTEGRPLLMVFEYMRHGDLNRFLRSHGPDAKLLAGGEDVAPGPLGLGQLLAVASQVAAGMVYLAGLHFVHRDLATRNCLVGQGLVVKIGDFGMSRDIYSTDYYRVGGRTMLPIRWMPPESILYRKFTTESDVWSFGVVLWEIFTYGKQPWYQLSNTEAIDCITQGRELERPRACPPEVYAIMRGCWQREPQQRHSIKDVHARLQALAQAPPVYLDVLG
T2 sequence (Q16620 32-822): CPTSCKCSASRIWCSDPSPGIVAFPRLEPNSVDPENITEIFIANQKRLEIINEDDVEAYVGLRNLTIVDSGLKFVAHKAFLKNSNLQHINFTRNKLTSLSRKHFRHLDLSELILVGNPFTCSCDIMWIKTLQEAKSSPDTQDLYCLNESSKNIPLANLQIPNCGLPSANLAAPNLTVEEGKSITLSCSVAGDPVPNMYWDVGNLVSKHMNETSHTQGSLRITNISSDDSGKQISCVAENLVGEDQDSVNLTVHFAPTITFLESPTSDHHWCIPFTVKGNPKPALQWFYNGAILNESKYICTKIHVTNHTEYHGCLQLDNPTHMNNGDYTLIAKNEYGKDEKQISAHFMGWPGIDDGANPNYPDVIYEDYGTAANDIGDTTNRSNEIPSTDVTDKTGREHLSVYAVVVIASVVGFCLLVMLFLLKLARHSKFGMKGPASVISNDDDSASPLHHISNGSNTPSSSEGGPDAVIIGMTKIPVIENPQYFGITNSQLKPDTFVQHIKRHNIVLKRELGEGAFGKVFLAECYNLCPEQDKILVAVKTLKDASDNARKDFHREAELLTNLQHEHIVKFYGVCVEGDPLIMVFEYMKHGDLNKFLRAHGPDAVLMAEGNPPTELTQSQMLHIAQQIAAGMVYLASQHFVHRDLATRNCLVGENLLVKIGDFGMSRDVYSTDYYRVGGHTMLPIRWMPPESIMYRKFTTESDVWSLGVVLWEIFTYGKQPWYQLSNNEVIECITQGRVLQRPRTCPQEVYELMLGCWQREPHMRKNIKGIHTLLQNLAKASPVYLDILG

Consider `Cc1ccc(-c2ccc(-n3c(=O)[nH]c(=O)n(-c4ccccc4)c3=O)cc2C)o1` [Example 4, 1-[3-methyl-4-(5-methylfuran-2-yl)phenyl]-3-phenyl-1,3,5-triazinane-2,4,6-trione], for which the pEC50 is 5.17 at TrkA and 5.68 at TrkB.
The corresponding values for `Cc1cc(-n2c(=O)[nH]c(=O)n(-c3ccccc3)c2=O)ccc1C(C)C` [Example 3, 1-[3-methyl-4-(propan-2-yl)phenyl]-3-phenyl-1,3,5-triazinane-2,4,6-trione] are 5.15 and 5.10.
As to `Cc1cc(-n2c(=O)[nH]c(=O)n(C)c2=O)ccc1-c1ccccc1` [Example 7, 1-methyl-3-{2-methyl-[1,1′-biphenyl]-4-yl}-1,3,5-triazinane-2,4,6-trione], the negative logarithm of the EC50 (pEC50) was 5.17 at TrkA and 4.69 at TrkB.
The corresponding values for `Cc1cccc(-n2c(=O)[nH]c(=O)n(-c3ccc(-n4cccc4)c(C)c3)c2=O)c1` [Example 11, 1-[3-methyl-4-(1H-pyrrol-1-yl)phenyl]-3-(3-methylphenyl)-1,3,5-triazinane-2,4,6-trione] are 7.00 and 7.15.
As for `Cc1cc(-n2c(=O)[nH]c(=O)n(C)c2=O)ccc1Oc1ccc(SC(F)(F)F)cc1` [toltrazuril, 1-methyl-3-(3-methyl-4-{4-[(trifluoromethyl)sulfanyl]phenoxy}phenyl)-1,3,5-triazinane-2,4,6-trione], in experiment [1], the “inhibits the binding of p-amyloid oligomers to ephrin type-B receptor 2 (EphB2)” value is 30%.
Consider `Cc1cc(-n2c(=O)[nH]c(=O)n(-c3ccccc3)c2=O)ccc1N1CCCCC1` [Example 2, 1-[3-methyl-4-(piperidin-1-yl)phenyl]-3-phenyl-1,3,5-triazinane-2,4,6-trione], for which the pEC50 on TrkA is 5.98; at TrkB, 5.90.
`Cc1cc(-n2c(=O)[nH]c(=O)n(-c3ccccc3)c2=O)ccc1-n1cccc1` [Example 6, 1-[3-methyl-4-(1H-pyrrol-1-yl)phenyl]-3-phenyl-1,3,5-triazinane-2,4,6-trione]: the pEC50 was 6.62 at TrkA and 6.60 on TrkB.
For `Cc1cc(-n2c(=O)[nH]c(=O)n(-c3ccccc3)c2=O)ccc1-n1cccn1` [Example 8, 1-[3-methyl-4-(1H-pyrazol-1-yl)phenyl]-3-phenyl-1,3,5-triazinane-2,4,6-trione] the same measures were 5.25 and 5.21.
The corresponding values for `Cc1cc(-n2c(=O)[nH]c(=O)n(-c3ccccc3)c2=O)ccc1-c1ccccc1` [Example 1, 1-{2-methyl-[1,1′-biphenyl]-4-yl}-3-phenyl-1,3,5-triazinane-2,4,6-trione] are 6.74 and 7.05.
As to `CCc1ccc(-c2ccc(-n3c(=O)[nH]c(=O)n(C)c3=O)cc2C)cc1` [Example 5, 1-{4′-ethyl-2-methyl-[1,1′-biphenyl]-4-yl}-3-methyl-1,3,5-triazinane-2,4,6-trione], the pEC50 on TrkA is 5.14; on TrkB, 5.52.

The record behind these values is US20210261513A1, “4-SUBSTITUTED PHENYL-1,3,5-TRIAZINE DERIVATIVES AS MODULATORS OF TRK RECEPTORS” (ALZECURE PHARMA AB, priority 2018, published 2021).
